Experiments:
[1] = system: mice; test: Bone marrow transplant after 11Gy, SW033291 5 mg/kg IP twice daily: survival and blood/marrow counts; format: in vivo, mouse
[2] = system: cell numbers in a cell culture assay; test: Toxicity in cell culture assay (decrease of cell numbers); format: cell-based; conditions: concentration needed to decrease cell numbers
Method: Time to inhibition refers to the time needed to inhibit the generation of NADH by 15-PGDH from the moment with drug is added into the reaction mix. Delta Tm refers to the shift in melting temperature of recombinant 15-PGDH in the presence of drug (with cofactor NADH also present). Concentration of Full Cell Line Reporter Induction refers to the concentration of drug that needs to be added to reporter cell line to achieve maximal induction of the 15-PGDH-luciferase gene fusion reporter cassette, as measured by luciferase assays. Hepatocyte stability refers to the half-life of compound in the presence of hepatocytes in culture. Toxicity refers to the concentration of compound needed to decrease cell numbers in a cell culture assay.

[3] = system: A549 cells; test: PGE2 in medium of IL1-beta stimulated A549 cells; format: cell-based
[4] = system: C57BL/6J mice; test: Bone marrow of C57BL/6J mice treated IP; format: in vivo, mouse; conditions: 5 mg/kg or 20 mg/kg IP
Excerpt: Experimental conditions are noted on the figure.

[5] = system: 15-PGDH mRNA; test: 15-PGDH mRNA by real-time PCR in colon cancer cell lines; format: cell-based
Excerpt: In these studies parental cell lines (not containing the 15-PGDH-luciferase reporter) are employed.

[6] = system: C57BL/6J female mice; test: Survival of mice after whole body irradiation, SW033291 5 mg/kg IP; format: in vivo, mouse; conditions: for number of mice surviving: 9 Gy
[7] = system: CXCL12; test: Gene expression in bone marrow cells of treated mice: CXCL12; format: in vivo, mouse; conditions: 10 mg/kg IP twice daily, 5 doses
Method: 2 hours following the last dose bone marrow is harvested and sorted into SKL marked cells that are hematopoietic stem cell enriched and into CD45(−) cells that are bone marrow stroma cells. RNA was extracted and gene expression determined relative to levels in mice injected with vehicle control.

[8] = system: mice; test: Homing of CFSE labeled donor bone marrow cells in lethally irradiated mice; format: in vivo, mouse; conditions: 10 mg/kg IP
Method: Drugs are administered following radiation, following the transplant, and again at 8 hours after the transplant.

[9] = system: 15-PGDH-luciferase fusion reporter in V9m, LS174T and V503 cells; test: 15-PGDH-luciferase fusion reporter induction in colon cancer cell lines; format: cell-based; conditions: V9m, LS174T, V503
[10] = 21 day toxicity study in FVB mice, daily weights; format: in vivo, mouse; conditions: 5 mg/kg IP twice daily for 21 days
[11] = day 5 after transplant, 500,000 donor cells

With `CCCC[S+]([O-])c1sc2nc(-c3cccs3)cc(-c3ccccc3)c2c1N` (stereo not shown) [SW033291, 2-(butylsulfinyl)-4-phenyl-6-(thiophen-2-yl)thieno[2,3-b]pyridin-3-amine] as the compound, how does the “median survival vs control” value ([1]; 100,000 donor cells) read?
Its value is “approximate doubling of median survival”.

What about the “survival at 30 days” value ([1]; 200,000 donor cells) of the same compound?
Its value is “all mice receiving 200,000 donor cells plus SW033291 survived”.

What about the “survival at 30 days” value ([1]; 500,000 donor cells) of the same compound?
The value was “all survived”.

What about the “total platelet count vs control” value [1, 11] of the same compound?
Its value is “significantly higher total platelet count”.

And the “total white count vs control” value [1, 11]?
Its value is “significantly higher total white count”.

And the platelet count ([1]; day 8 after transplant, control 39,500)?
The platelet count was 77,000.

And the “total white counts vs control” value ([1]; day 12 after transplant)?
The value was “significantly greater total white counts”.

What about the hemoglobin level ([1]; day 12 after transplant, control 8.3) of the same compound?
The hemoglobin level was 11.58.

And the neutrophil count ([1]; day 12 after transplant, control 125)?
Its neutrophil count is 332.

And the “lymphocyte count vs control” value ([1]; day 18 after transplant)?
The value was “significantly higher”.

And the “platelet counts vs control” value ([1]; day 18 after transplant)?
The value was “significantly higher platelet counts”.

What about the “total white count vs control” value ([1]; day 18 after transplant) of the same compound?
Its value is “significantly higher total white count”.

And the neutrophil count ([1]; day 18 after transplant, control 365)?
Its neutrophil count is 835.

And the “mean SKL marked bone marrow cells” value ([1]; day 18 after transplant, control 967)?
Its value is 4127.

And the Toxicity [2]?
The Toxicity was greater than 10 µM.

And the “rank of PGE2 level in medium” value ([3]; 100 nM drug)?
Its value is “next highest level of PGE2”.

What about the “15-PGDH activity in cells as reflected in PGE2 levels” value ([3]; IL1-beta 23 hours, compound for last 5 hours) of the same compound?
The value was “clear inhibition of 15-PGDH activity”.

What about the “highest PGE2 level in medium” value ([3]; IL-1β 16 h, then compound 8 h) of the same compound?
Its value is 3000 pg/mL.

And the “increase in numbers of hematopoietic colonies” value [4]?
Its value is “approximately 30%”.

What about the “percent of Sca1+/c-Kit+ cells in lineage negative (SKL) cells” value [4] of the same compound?
The value was “unchanged”.

And the “15-PGDH mRNA” value ([5]; V503 cells)?
Its value is “slight increase in 15-PGDH mRNA”.

And the “15-PGDH mRNA levels” value ([5]; treated colon cancer cell lines)?
The value was “do not in general alter 15-PGDH mRNA levels”.

What about the “longer survival on average than vehicle control” value ([6]; 11Gy, any of the three dosing schedules) of the same compound?
Its value is 1 to 2 days.

And the “longer survival than vehicle control” value ([6]; 11Gy, daily for 7 doses)?
Its value is 48 h.

What about the “number of mice surviving” value ([6]; Day 0, daily for 7 doses) of the same compound?
Its value is 3.

And the “number of mice surviving” value ([6]; Day 5, daily for 7 doses)?
Its value is 3.

What about the “number of mice surviving” value ([6]; Day 6, daily for 7 doses) of the same compound?
Its value is 3.

What about the “number of mice surviving” value ([6]; Day 7, daily for 7 doses) of the same compound?
The value was 3.

What about the “number of mice surviving” value ([6]; Day 8, daily for 7 doses) of the same compound?
The value was 3.

What about the “number of mice surviving” value ([6]; Day 9, daily for 7 doses) of the same compound?
The value was 3.

And the “number of mice surviving” value ([6]; Day 10, daily for 7 doses)?
The value was 3.

What about the “number of mice surviving” value ([6]; Day 12, daily for 7 doses) of the same compound?
The value was 2.

What about the “number of mice surviving” value ([6]; Day 13, daily for 7 doses) of the same compound?
Its value is 2.

What about the “number of mice surviving” value ([6]; Day 14, daily for 7 doses) of the same compound?
The value was 1.

What about the “number of mice surviving” value ([6]; Day 15, daily for 7 doses) of the same compound?
Its value is 0.

And the appearance of mice ([6]; Day 25, 7 Gy, wrapped cell reads Looks Healthy)?
The appearance of mice was “Looks”.

And the “induction of CXCL12” value ([7]; CD45(−) bone marrow stromal cells)?
The value was “greater than 4 fold”.

What about the “induction in RNA expression of CXCL12” value ([7]; bone marrow SKL cells) of the same compound?
The value was 3 fold.

And the “increase of homed cells in recipient bone marrow” value ([8]; FIG. 88)?
The value was 3 fold.

What about the “increase of homed cells in recipient bone marrow” value ([8]; FIG. 90) of the same compound?
The value was 2 fold.

What about the “increase of homed donor cells in recipient bone marrow” value ([8]; FIG. 140) of the same compound?
The value was “approximately 2.5 fold”.

And the “luciferase activity, in words” value [9]?
The value was “increase luciferase activity”.

And the mouse weight [10]?
The mouse weight was “no evidence for SW033291 reducing mouse weight”.

— patent US20230285402A1, “Compositions and Methods of Modulating Short-Chain Dehydrogenase Activity” (BOARD OF REGENTS OF THE UNIVERSITY OF TEXAS SYSTEM, priority 2013, published 2023)
